Reference: patent US20240115270A1, “DIRECT ORAL ANTICOAGULANT-ELUTING MEDICAL DEVICE” (BOSTON SCIENTIFIC SCIMED, INC., priority 2021, published 2024)

Tests used:
heparinized bovine blood = assay: Clot formation on dip-coated PET fabric disks in heparinized bovine blood; conditions: PVDF-HFP/drug 90/10 dip-coated 15 mm PET fabric disks, ACT about 190 seconds, 37° C., various time points, images FIG. 5
Method: A solution of PVDF-HFP and DOAC was prepared in 80/20 acetone/DMSO (wt/wt). The PVDF-HFP to drug ratio was 90/10 (wt/wt) and the solution solids was 0.7%. The DOAC drugs evaluated were apixaban (Eliquis®), rivaroxaban (Xarelto®) and edoxaban (Savaysa®) 15 mm diameter polyethylene terephthalate (PET) fabric disks were dip coated into the polymer/drug solution at a dip speed of 5 mm/sec. The coated disks were dried for 30 min at 125° C. in a convection oven. The drug coated disks and PVDF-HFP only control disks were placed in cups containing heparinized bovine blood adjusted to an active clotting time (ACT) of about 190 seconds using protamine. The cups were placed on an orbital shaker incubator at 37° C. and disks were removed at various time points and imaged. The disks were then dried and weighed to determine clot weight. […] The clot weights provided in FIG. 6 verify the minimal amount of thrombus formed on the DOAC treated fabric.

bovine blood = assay: Thrombogenicity of spray-coated Watchman device in bovine blood; conditions: bovine blood ACT=210, 15 minutes
Method: A drug/polymer solution of PVDF-HFP and DOAC was prepared in 80/20 acetone/DMSO (wt/wt). The PVDF-HFP to drug ratio was 60/40 (wt/wt) and the solution solids was 2%. The DOAC drug evaluated was rivaroxaban (Xarelto). A 24 mm diameter Watchman device was spray-coated with the polymer/drug solution at a flow rate of 10 ml/hr to apply a basecoat. The device was dried for 30 min at 125° C. in a convection oven and then spray-coated with a topcoat solution (2% PVDF-HFP in 100% acetone), at a flow rate of 10 ml/hr. The total basecoat weight was 38.8 mg and the topcoat weight was 18.7 mg. The spray-coated device was then placed in PBS/Tween solution at 37° C. for 11 days to simulate in vivo drug elution. The device was then rinsed with DI water and dried. A PVDF-HFP-only coated control device was also subjected to the same incubation and rinsing protocol. The DOAC-eluting device and the control device were placed in the same container of bovine blood (ACT=210) on an orbital shaker incubator at 37° C. for 15 minutes to assess the thrombogenicity of the two devices.
A solution of PVDF-HFP and DOAC was prepared in 40/60 acetone/DMF (wt/wt). The PVDF-HFP to drug ratio was 70/30 (wt/wt) and the solution solids was 4%. The DOAC drug evaluated was apixaban. […]

Row | Structure (SMILES) | thrombus (clots) compared to the PVDF-HFP coated control (heparinized bovine blood) | thrombus formation on partially coated (masked) device (bovine blood; PVDF-HFP/drug 70/30 basecoat plus topcoat, proximal face only, 24 mm Watchman, after 7 days in PBS/Tween at 37° C., FIG. 10B) | thrombus formation on device versus PVDF-HFP-only coated control device (bovine blood; PVDF-HFP/drug 60/40 basecoat plus topcoat on 24 mm Watchman, after 11 days in PBS/Tween at 37° C., FIGS. 9A-9D)
1 | COc1ccc(-n2nc(C(N)=O)c3c2C(=O)N(c2ccc(N4CCCCC4=O)cc2)CC3)cc1 [apixaban] | significantly less thrombus | inhibited thrombus formation only on the proximal face of the device | 
2 | O=C(NC[C@H]1CN(c2ccc(N3CCOCC3=O)cc2)C(=O)O1)c1ccc(Cl)s1 [rivaroxaban] | significantly less thrombus |  | inhibited thrombus formation on the proximal face of the device to a greater degree than did the control device
